Consider two substances from patent US11214803B2, “Modulators of YAP1 expression” (Ionis Pharmaceuticals, Inc., priority 2019, dated 2022).

Marks after values point to notes of the source that are not given here.

For data set [1] the following is noted: rat, in vivo, sc, 50 mg/kg.
Protocol: Male Sprague-Dawley rats were maintained on a 12-hour light/dark cycle and fed ad libitum with Purina normal rat chow. Groups of 4 Sprague-Dawley rats each were weekly injected subcutaneously with 50 mg/kg of Ionis oligonucleotide for 6 weeks (total 7 doses). Forty-eight hours after the last dose, the rats were euthanized; and organs, urine and plasma were harvested for further analysis.
To evaluate the effect of Ionis oligonucleotides on kidney function, urinary levels of total protein and creatinine were measured using an automated clinical chemistry analyzer (Hitachi Olympus AU400c, Melville, N.Y.).
Data set [2] concerns SNU449 xenograft tumor. Briefly: Tumor volume in SNU449 xenograft tumor model, alone and in combination with sorafenib (second Example 30). Type of data set: in vivo, human. The following applies: SNU449 xenograft, oligonucleotide 50 mg/kg, sorafenib 30 mg/kg orally. A general note: A xenograft is tissue or cells of one species grown in another, often human tumour cells in immunodeficient mice.

“1198439 (AGTGTATGTCAGAAGA; sugar, 5-methylcytosine, phosphorothioate modifications, further chemistry not given here) [compound 1198439]”: the “URINE P/C ratio (total protein to creatinine ratio)” value in data set [1] was 8*.
On to “1198440 (AAGTGTATGTCAGAAG; cEt, 2'-MOE, 5-methylcytosine, phosphorothioate modifications, further chemistry not given here) [compound 1198440]”, for which the “Average Tumor Volume” value in data set [2] (day 43 post tumor implantation) worked out at 111 mm^3; in data set [2] (day 46 post tumor implantation) it was 152 mm^3; in data set [2] (day 50 post tumor implantation), 168 mm^3; in data set [2] (day 53 post tumor implantation) it was 201 mm^3; in data set [2] (day 57 post tumor implantation) it was 242 mm^3; in data set [2] (day 60 post tumor implantation), 263 mm^3. For the same substance, the “Average Tumor Volume” value stood at 338 mm^3 in data set [2] (day 64 post tumor implantation); 376 mm^3 in data set [2] (day 67 post tumor implantation); 373 mm^3 in data set [2] (day 71 post tumor implantation); 401 mm^3 in data set [2] (day 75 post tumor implantation); 429 mm^3 in data set [2] (day 78 post tumor implantation); 514 mm^3 in data set [2] (day 81 post tumor implantation). The “Average Tumor Volume” value in data set [2] (day 85 post tumor implantation) turned out to be 606 mm^3; in data set [2] (day 88 post tumor implantation), 613 mm^3; in data set [2] (day 92 post tumor implantation), 690 mm^3; in data set [2] (day 94 post tumor implantation), 773 mm^3; in data set [2] (day 98 post tumor implantation), 804 mm^3; in data set [2] (day 101 post tumor implantation), 818 mm^3. Moreover, the “Average Tumor Volume” value was 894 mm^3 in data set [2] (day 105 post tumor implantation), 921 mm^3 in data set [2] (day 108 post tumor implantation) and 978 mm^3 in data set [2] (day 119 post tumor implantation). Further, in data set [1], the “URINE P/C ratio (total protein to creatinine ratio)” value worked out at 9.
